Columns and labels:
[1] = wn = mass fraction of the nth substance listed; conditions: for surface tension liquid-gas: Maximal bubble pressure; for mass density: 100 kPa, Liquid, Vibrating tube method
[2] = refractive index (Na D-line) (dimensionless); wn = mass fraction of the nth substance listed; conditions: 100 kPa, Liquid, Standard Abbe refractometry

CCn1cc[n+](CCOC)c1.N#C[N-]C#N [1-ethyl-3-(2-methoxyethyl)imidazolium dicyanamide] + O
Conditions	mass density, [1] [kg/m3]	refractive index, [2]	surface tension liquid-gas, [1] [mN/m]
298.15 K, w2 = 0.00031	–	–	51.1
298.15 K, w2 = 0.00148	1113.35	1.5049	–
298.15 K, w2 = 0.00175	–	–	51.3
298.15 K, w2 = 0.00277	1113.18	1.5045	–
298.15 K, w2 = 0.00317	–	–	51.7
298.15 K, w2 = 0.00434	1112.96	1.5041	–
298.15 K, w2 = 0.00461	–	–	52
298.15 K, w2 = 0.0055	1112.77	1.5037	–
298.15 K, w2 = 0.00609	–	–	52.3
298.15 K, w2 = 0.00719	1112.46	1.5033	–
303.15 K, w2 = 0.00031	–	–	50.8
303.15 K, w2 = 0.00148	1109.96	1.5036	–
303.15 K, w2 = 0.00175	–	–	51.1
303.15 K, w2 = 0.00277	1109.78	1.5032	–
303.15 K, w2 = 0.00317	–	–	51.4
303.15 K, w2 = 0.00434	1109.57	1.5028	–
303.15 K, w2 = 0.00461	–	–	51.7
303.15 K, w2 = 0.0055	1109.37	1.5024	–
303.15 K, w2 = 0.00609	–	–	52
303.15 K, w2 = 0.00719	1109.06	1.5019	–
308.15 K, w2 = 0.00031	–	–	50.5
308.15 K, w2 = 0.00148	1106.58	1.5024	–
308.15 K, w2 = 0.00175	–	–	50.8
308.15 K, w2 = 0.00277	1106.41	1.5019	–
308.15 K, w2 = 0.00317	–	–	51.1
308.15 K, w2 = 0.00434	1106.19	1.5015	–
308.15 K, w2 = 0.00461	–	–	51.4
308.15 K, w2 = 0.0055	1106	1.501	–
308.15 K, w2 = 0.00609	–	–	51.7
308.15 K, w2 = 0.00719	1105.69	1.5006	–
313.15 K, w2 = 0.00031	–	–	50.2
313.15 K, w2 = 0.00148	1103.23	1.5012	–
313.15 K, w2 = 0.00175	–	–	50.5
313.15 K, w2 = 0.00277	1103.05	1.5007	–
313.15 K, w2 = 0.00317	–	–	50.8
313.15 K, w2 = 0.00434	1102.83	1.5002	–
313.15 K, w2 = 0.00461	–	–	51.1
313.15 K, w2 = 0.0055	1102.64	1.4996	–
313.15 K, w2 = 0.00609	–	–	51.4
313.15 K, w2 = 0.00719	1102.33	1.4992	–
318.15 K, w2 = 0.00031	–	–	49.9
318.15 K, w2 = 0.00148	1099.89	1.4996	–
318.15 K, w2 = 0.00175	–	–	50.2
318.15 K, w2 = 0.00277	1099.72	1.4992	–
318.15 K, w2 = 0.00317	–	–	50.5
318.15 K, w2 = 0.00434	1099.5	1.4987	–
318.15 K, w2 = 0.00461	–	–	50.8
318.15 K, w2 = 0.0055	1099.3	1.4982	–
318.15 K, w2 = 0.00609	–	–	51.1
318.15 K, w2 = 0.00719	1098.99	1.4979	–
323.15 K, w2 = 0.00031	–	–	49.6
323.15 K, w2 = 0.00148	1096.58	1.4984	–
323.15 K, w2 = 0.00175	–	–	49.9
323.15 K, w2 = 0.00277	1096.4	1.498	–
323.15 K, w2 = 0.00317	–	–	50.2
323.15 K, w2 = 0.00434	1096.18	1.4975	–
323.15 K, w2 = 0.00461	–	–	50.6
323.15 K, w2 = 0.0055	1095.98	1.497	–
323.15 K, w2 = 0.00609	–	–	50.8
323.15 K, w2 = 0.00719	1095.66	1.4965	–
328.15 K, w2 = 0.00031	–	–	49.4
328.15 K, w2 = 0.00148	1093.27	1.4971	–
328.15 K, w2 = 0.00175	–	–	49.7
328.15 K, w2 = 0.00277	1093.1	1.4966	–
328.15 K, w2 = 0.00317	–	–	50
328.15 K, w2 = 0.00434	1092.88	1.496	–
328.15 K, w2 = 0.00461	–	–	50.4
328.15 K, w2 = 0.0055	1092.68	1.4955	–
328.15 K, w2 = 0.00609	–	–	50.6
328.15 K, w2 = 0.00719	1092.36	1.4949	–
333.15 K, w2 = 0.00031	–	–	49.1
333.15 K, w2 = 0.00148	1090	1.4954	–
333.15 K, w2 = 0.00175	–	–	49.5
333.15 K, w2 = 0.00277	1089.82	1.495	–
333.15 K, w2 = 0.00317	–	–	49.8
333.15 K, w2 = 0.00434	1089.59	1.4945	–
333.15 K, w2 = 0.00461	–	–	50.1
333.15 K, w2 = 0.0055	1089.4	1.4939	–
333.15 K, w2 = 0.00609	–	–	50.4
333.15 K, w2 = 0.00719	1089.08	1.4934	–
338.15 K, w2 = 0.00031	–	–	48.8
338.15 K, w2 = 0.00148	1086.74	1.4941	–
338.15 K, w2 = 0.00175	–	–	49.2
338.15 K, w2 = 0.00277	1086.56	1.4935	–
338.15 K, w2 = 0.00317	–	–	49.5
338.15 K, w2 = 0.00434	1086.33	1.4929	–
338.15 K, w2 = 0.00461	–	–	49.8
338.15 K, w2 = 0.0055	1086.13	1.4923	–
338.15 K, w2 = 0.00609	–	–	50.1
338.15 K, w2 = 0.00719	1085.81	1.4919	–
